What was measured:
[1] = test system: female Sprague-Dawley white rats; experiment: Bone remodeling index: serum osteocalcin and alkaline phosphatase; type: in vivo; settings: single treatment (calcitriol 0.1 μg/kg or alendronate 1.0 mg/kg), 2 months; for concentration of serum osteocalcin: FIG. 5; for activity of alkaline phosphatase: FIG. 6
Protocol: (§1) Twelve week old matured female Sprague-Dawley white rats were supplied from Daehan Biolink Co., Ltd. (Seoul, Korea) and raised in a dean room of an animal experiment laboratory in a medical school of Seoul National University. The white rats were given a week to adapt by feeding them with normal feedstuff (Purina, chow diet) and then they were divided into 6 different groups wherein each group consisted of 10 white rats with similar weight distribution, and ovariostereses were performed to all of them. The white rats were allowed to freely drink water and have food under a standardized condition of 22° C., 50% humidity, 12 h dark/light cycle.
(§2) The amount of medication administered in each group is shown in the following table 1 and the control group was administered only with equal amount of palm oil and physiological saline used in the experimental groups.
(§3) After 2 months of the onset of the above medications, 24 h urine samples were collected from the white rats by using a metabolic cage, centrifuged and then stored at −70° C. The white rats under experiment were fasted overnight decapitated, and their blood samples were collected. White rats sera were then obtained by centrifuging those blood samples and were stored at −70° C. Tibiae were separated by ablation and fixed with 4% formalin at pH 7.4.
The activity level of serum alkaline phosphatase was measured by using Technicon autoanalyzer and the concentration of osteocalcin was measured by using a kit (OSCA test, Brahams, Berlin, Germany) which uses RIA method.

[2] = test system: female Sprague-Dawley white rats; experiment: Bone histomorphometry: area of trabecular bone of tibia after ovariosteresis; type: in vivo; settings: single treatment (calcitriol 0.1 μg/kg or alendronate 1.0 mg/kg), oral 5 days/week for 2 months after ovariosteresis; image analyzer, FIG. 2
Protocol: as §1, §2, §3

post-menopausal women = settings: clinical study; cited from earlier work
[3] = test system: female Sprague-Dawley white rats; experiment: Measurement of calcium excretion in urine (calcium/creatine of 24 h urine); type: in vivo; settings: single treatment (calcitriol 0.1 μg/kg or alendronate 1.0 mg/kg), 2 months, FIG. 4
Protocol: as §1, §2, §3

[4] = test system: female Sprague-Dawley white rats; experiment: Measurement of serum calcium concentration (Technicon autoanalyzer); settings: single treatment (calcitriol 0.1 μg/kg or alendronate 1.0 mg/kg), 2 months, FIG. 3
Protocol: as §1, §2, §3

Compound: NCCCC(O)(P(=O)(O)O)P(=O)(O)O [alendronate, 4-amino-hydroxybutylidine-1,1-bisphosphonate]
- concentration of serum osteocalcin [1]: decreased
- activity of alkaline phosphatase [1]: decreased
- area of trabecular bone [2]: drastically increased
- reduction of rate of occurrence of new spinal fracture compared to placebo group (post-menopausal women): about 48%

Compound: C=C1/C(=C\C=C2/CCC[C@]3(C)[C@@H]([C@H](C)CCCC(C)(C)O)CC[C@@H]23)C[C@@H](O)C[C@@H]1O [calcitriol]
- concentration of serum osteocalcin [1]: slight increase
- activity of alkaline phosphatase [1]: slight increase
- area of trabecular bone [2]: not increased
- calcium excretion in urine (calcium/creatine, 24 h urine) [3]: increased markedly
- serum calcium concentration [4]: significant increase

— patent publication US6835722B1, “Pharmaceutical compositions and preparations for treatment of metabolic bone disease” (Yuyu Industrial Co., Ltd., priority 1999, dated 2004)
